In patent US20110060267A1 (priority 2008, published 2011):

Assays:
porcine cornea = assay: Stress-strain analysis of corneal buttons after photoinitiator and UV exposure
post-LASIK ectasia = assay: Treatment for post-LASIK ectasia with photoinitiator and UV irradiation; format: in vivo; details: 0.35M sodium persulfate drops; one 10-second UV burst 1000 mW
Procedure: A subject is diagnosed with ectasia following a LASIK procedure. […] Mechanical stability is measured using the Reichert Ocular Response Analyzer. CH values correlate with reduced mechanical stability. Pachymetry of the cornea measures a corneal stromal thickness of 300 microns or less in areas of the cornea, indicative of post-LASIK ectasia. The subject is chosen to receive treatment using short wavelength ultraviolet irradiation following administration of a low concentration photoinitiator. Drops of 0.35M sodium persulfate in 0.02M sodium phosphate buffer at a pH of 7.6-8.0 are administered to the cornea in an applicator designed to limit exposure to the location of keratoconus on the corneal surface. The cornea is then exposed to one 10-second burst of ultraviolet irradiation at an intensity of 1000 mW.

keratoconus [1] = assay: Treatment of keratoconus with photoinitiator and UV irradiation; format: in vivo; details: 0.35M sodium persulfate drops; one 10-second UV burst 1000 mW
Procedure: A subject is diagnosed with keratoconus in both eyes. They are not able to wear contact lenses. […] Corneal hysteresis measurements are made using the Reichert Ocular Response Analyzer. Corneal hysteresis (CH) is at least 3 numbers less than the normal population. Corneal topography is also conducted to identify the location of keratoconus. The subject is chosen to receive treatment using short wavelength ultraviolet irradiation following administration of a low concentration photoinitiator. Drops of 0.35M sodium persulfate in 0.02M sodium phosphate buffer at a pH of 7.6-8.0 are administered to the cornea in an applicator designed to limit exposure to the location of keratoconus on the corneal surface. The cornea is then exposed to one 10-second burst of ultraviolet irradiation at an intensity of 1000 mW.

[2] = system: cornea following orthokeratology lens wear; assay: Corneal stabilization following orthokeratology lens wear; format: in vivo; details: treated eye compared to untreated control eye; 0.35M sodium persulfate; one 10-second UV burst 1000 mW
Description: Subjects are fitted with lenses for orthokeratology. The subjects have one (1) eye treated by exposure to ultraviolet irradiation following pretreatment with a photoinitiator. The contralateral eye is an untreated control. Selection of the eye to be treated is random. Examinations at the initial visit and at each follow-up include unaided visual acuity, slit-lamp examination, refractive error, corneal topography, and corneal hysteresis using the Reichert Ocular Response Analyzer. CH values correlate with reduced mechanical stability. The subject is chosen to receive treatment using short wavelength ultraviolet irradiation following administration of a low concentration photoinitiator. Drops of 0.35M sodium persulfate in 0.02M sodium phosphate buffer at a pH of 7.6-8.0 are administered to the cornea in an applicator designed to limit exposure to the corneal surface. The cornea is then exposed to one 10-second burst of ultraviolet irradiation at an intensity of 1000 mW.

keratoconus [3] = details: 0.1% riboflavin drops, UVA 3 mW/cm 30 minutes, deepithelialized cornea; cited from earlier work
cornea = details: riboflavin drops, UVA 30 minutes, ablated cornea; cited from earlier work
[4] = buffer; cited from earlier work

## O=S(=O)([O-])OOS(=O)(=O)[O-].[Na+].[Na+] [sodium persulfate]
Porcine cornea; 0.35M sodium persulfate 1 min, 10-second bursts UV 1000 mW, 310-400 nm, acetic anhydride softened cornea
  low modulus following exposure to ultraviolet irradiation: increased
Porcine cornea; four 10-second UV exposures
  low modulus: nearly equal to untreated control cornea
Porcine cornea; single 10-second UV exposure, FIG. 1
  strengthening (low modulus): maximum
Porcine cornea; subsequent UV exposures, FIG. 1
  low modulus: reduced the increase in low modulus
post-LASIK ectasia
  corneal hysteresis (CH): two-fold increase
  vision: significant improvement
Keratoconus [1]
  corneal hysteresis (CH): increase
  vision: significant improvement
[2]
  regression of visual acuity: minimal to no regression

## Cc1cc2nc3c(=O)[nH]c(=O)nc-3n(C[C@H](O)[C@H](O)[C@H](O)CO)c2cc1C [riboflavin]
Keratoconus [3]
  clinical treatment of keratoconus: successful
cornea
  corneal biomechanical stiffness: significant increase

## CC(C#N)(CCC(=O)O)N=NC(C)(C#N)CCC(=O)O (stereo not drawn) [4,4′-Azobis(4-cyanovaleric acid)]
[4]
  10th Half-life ° C. (Solvent): 69 (water) ° C.
